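Each compound was tested at five concentrations against cells in 96-well plates for 48 hours. Here, GI50 denotes the concentration required for 50% inhibition of growth. TGI denotes the concentration required for complete inhibition of growth.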
What was measured:
Test in all cases: NCI anticancer screen, dose series, 48 h; in the data active = GI50 below about 0.43 µM; inactive = the rest
MDA-MB-231 breast = test system: MDA-MB-231 breast
HOP-62 NSCLC = test system: HOP-62 NSCLC
COLO 205 colon = test system: COLO 205 colon
NCI-H226 lung = test system: NCI-H226 lung
HL-60(TB) leukemia = test system: HL-60(TB) leukemia
SF-539 CNS = test system: SF-539 CNS
PC-3 prostate = test system: PC-3 prostate
SR leukemia = test system: SR leukemia
TK-10 renal = test system: TK-10 renal
SK-MEL-28 melanoma = test system: SK-MEL-28 melanoma
SW-620 colon = test system: SW-620 colon
OVCAR-4 ovarian = test system: OVCAR-4 ovarian
SNB-19 CNS = test system: SNB-19 CNS
OVCAR-5 ovarian = test system: OVCAR-5 ovarian
UO-31 renal = test system: UO-31 renal
HOP-92 NSCLC = test system: HOP-92 NSCLC
ACHN renal = test system: ACHN renal
SN12C renal = test system: SN12C renal
DU-145 prostate = test system: DU-145 prostate
RPMI-8226 leukemia = test system: RPMI-8226 leukemia
LOX IMVI melanoma = test system: LOX IMVI melanoma
U251 CNS = test system: U251 CNS
SK-MEL-2 melanoma = test system: SK-MEL-2 melanoma
KM12 colon = test system: KM12 colon
RXF 393 renal = test system: RXF 393 renal
EKVX NSCLC = test system: EKVX NSCLC
A549 NSCLC = test system: A549 NSCLC
UACC-62 melanoma = test system: UACC-62 melanoma
MCF7 breast = test system: MCF7 breast
IGROV1 ovarian = test system: IGROV1 ovarian
NCI-H522 lung = test system: NCI-H522 lung
K-562 leukemia = test system: K-562 leukemia
UACC-257 melanoma = test system: UACC-257 melanoma
SF-268 CNS = test system: SF-268 CNS
NCI-H23 lung = test system: NCI-H23 lung
OVCAR-8 ovarian = test system: OVCAR-8 ovarian
SK-MEL-5 melanoma = test system: SK-MEL-5 melanoma
SK-OV-3 ovarian = test system: SK-OV-3 ovarian
M14 melanoma = test system: M14 melanoma
BT-549 breast = test system: BT-549 breast
786-0 renal = test system: 786-0 renal
NCI-H460 lung = test system: NCI-H460 lung
HCT-15 colon = test system: HCT-15 colon
HS 578T breast = test system: HS 578T breast
HCT-116 colon = test system: HCT-116 colon
MOLT-4 leukemia = test system: MOLT-4 leukemia
OVCAR-3 ovarian = test system: OVCAR-3 ovarian
SF-295 CNS = test system: SF-295 CNS
CAKI-1 renal = test system: CAKI-1 renal
NCI/ADR-RES ovarian = test system: NCI/ADR-RES ovarian
MDA-MB-435 = test system: MDA-MB-435
HT29 colon = test system: HT29 colon
CCRF-CEM leukemia = test system: CCRF-CEM leukemia
SNB-75 CNS = test system: SNB-75 CNS
T-47D breast = test system: T-47D breast

COc1ccc(-c2c(C#N)c(N)nc3c2COc2ccc(F)cc2-3)cc1OC
9.63 µM: TGI (MDA-MB-231 breast)
52.9 µM: TGI (HCT-15 colon)
20.9 µM: TGI (SN12C renal)
26.5 µM: TGI (BT-549 breast)
inactive: GI50 (MDA-MB-231 breast) 2.53 µM | GI50 (HOP-62 NSCLC) 14.7 µM | GI50 (COLO 205 colon) 5.79 µM | GI50 (NCI-H226 lung) 4.54 µM | GI50 (HL-60(TB) leukemia) 23.2 µM | GI50 (SF-539 CNS) 3.38 µM | GI50 (PC-3 prostate) 17.1 µM | GI50 (SR leukemia) 2.15 µM | GI50 (TK-10 renal) 3.35 µM | GI50 (SK-MEL-28 melanoma) 29.9 µM | GI50 (SW-620 colon) 9.21 µM | GI50 (OVCAR-4 ovarian) 6.82 µM | GI50 (SNB-19 CNS) 4.37 µM | GI50 (OVCAR-5 ovarian) 17.2 µM | GI50 (UO-31 renal) 17.3 µM | GI50 (HOP-92 NSCLC) 18 µM | GI50 (ACHN renal) 1.4 µM | GI50 (SN12C renal) 6.22 µM | GI50 (DU-145 prostate) 8.14 µM | GI50 (RPMI-8226 leukemia) 6.61 µM | GI50 (LOX IMVI melanoma) 2.29 µM | GI50 (U251 CNS) 10.3 µM | GI50 (SK-MEL-2 melanoma) 34.5 µM | GI50 (KM12 colon) 5.83 µM | GI50 (RXF 393 renal) 20.3 µM | GI50 (EKVX NSCLC) 4.91 µM | GI50 (A549 NSCLC) 3.81 µM | GI50 (UACC-62 melanoma) 7.99 µM | GI50 (MCF7 breast) 17.6 µM | GI50 (IGROV1 ovarian) 8.88 µM | GI50 (NCI-H522 lung) 18.9 µM | GI50 (K-562 leukemia) 53.6 µM | GI50 (UACC-257 melanoma) 18.9 µM | GI50 (SF-268 CNS) 15.8 µM | GI50 (NCI-H23 lung) 14.1 µM | GI50 (OVCAR-8 ovarian) 3.62 µM | GI50 (SK-MEL-5 melanoma) 12 µM | GI50 (SK-OV-3 ovarian) 8.44 µM | GI50 (M14 melanoma) 22 µM | GI50 (BT-549 breast) 10.1 µM | GI50 (786-0 renal) 16.9 µM | GI50 (NCI-H460 lung) 9.03 µM | GI50 (HCT-15 colon) 8.29 µM | GI50 (HS 578T breast) 7.55 µM | GI50 (HCT-116 colon) 6.66 µM | GI50 (MOLT-4 leukemia) > 100 µM | GI50 (OVCAR-3 ovarian) 2.21 µM | GI50 (SF-295 CNS) 3.27 µM | GI50 (CAKI-1 renal) 2.18 µM | GI50 (NCI/ADR-RES ovarian) 17.4 µM | GI50 (MDA-MB-435) 10.7 µM
46.2 µM: TGI (786-0 renal)
6.41 µM: TGI (OVCAR-3 ovarian)
30.5 µM: TGI (NCI-H23 lung)
37.3 µM: TGI (HCT-116 colon)
23.7 µM: TGI (SNB-19 CNS)
> 100 µM: TGI (COLO 205 colon) | TGI (PC-3 prostate) | TGI (SR leukemia) | TGI (SK-MEL-28 melanoma) | TGI (SW-620 colon) | TGI (HOP-92 NSCLC) | TGI (RPMI-8226 leukemia) | TGI (SK-MEL-2 melanoma) | TGI (KM12 colon) | TGI (MCF7 breast) | TGI (NCI-H522 lung) | TGI (K-562 leukemia) | TGI (NCI-H460 lung) | TGI (MOLT-4 leukemia)
33.6 µM: TGI (OVCAR-5 ovarian)
98.9 µM: TGI (M14 melanoma)
51.6 µM: TGI (RXF 393 renal)
13.2 µM: TGI (OVCAR-8 ovarian)
63.7 µM: TGI (OVCAR-4 ovarian)
37.5 µM: TGI (SK-MEL-5 melanoma)
14.2 µM: TGI (A549 NSCLC)
56.4 µM: TGI (SF-268 CNS)
24 µM: TGI (TK-10 renal)
24.8 µM: TGI (EKVX NSCLC)
10.9 µM: TGI (SF-295 CNS)
9.84 µM: TGI (LOX IMVI melanoma)
57.9 µM: TGI (UO-31 renal)
65.1 µM: TGI (IGROV1 ovarian)
5.44 µM: TGI (ACHN renal)
37.4 µM: TGI (MDA-MB-435)
8.15 µM: TGI (CAKI-1 renal)
36.8 µM: TGI (SK-OV-3 ovarian)
92.4 µM: TGI (HL-60(TB) leukemia)
42.2 µM: TGI (NCI/ADR-RES ovarian)
23.9 µM: TGI (DU-145 prostate)
38.5 µM: TGI (HS 578T breast)
39 µM: TGI (HOP-62 NSCLC)
11 µM: TGI (SF-539 CNS)
20 µM: TGI (NCI-H226 lung)
23 µM: TGI (UACC-62 melanoma)
60.5 µM: TGI (UACC-257 melanoma)
22.7 µM: TGI (U251 CNS)

CC[C@]1(Cc2ccc(OC)c(OC)c2)[C@@H]2C[C@@H](C(=O)OC)ON2O[C@H](OC2CCCC2(c2ccccc2)c2ccccc2)[C@@H]1OC(C)=O (some centres undefined)
> 100 µM: TGI (MDA-MB-231 breast) | TGI (HOP-62 NSCLC) | TGI (COLO 205 colon) | TGI (NCI-H226 lung) | TGI (SR leukemia) | TGI (TK-10 renal) | TGI (SK-MEL-28 melanoma) | TGI (SW-620 colon) | TGI (SNB-19 CNS) | TGI (OVCAR-5 ovarian) | TGI (HT29 colon) | TGI (UO-31 renal) | TGI (ACHN renal) | TGI (SN12C renal) | TGI (DU-145 prostate) | TGI (LOX IMVI melanoma) | TGI (CCRF-CEM leukemia) | TGI (U251 CNS) | TGI (SK-MEL-2 melanoma) | TGI (KM12 colon) | TGI (RXF 393 renal) | TGI (SNB-75 CNS) | TGI (EKVX NSCLC) | TGI (A549 NSCLC) | TGI (UACC-62 melanoma) | TGI (MCF7 breast) | TGI (IGROV1 ovarian) | TGI (K-562 leukemia) | TGI (UACC-257 melanoma) | TGI (SF-268 CNS) | TGI (NCI-H23 lung) | TGI (T-47D breast) | TGI (OVCAR-8 ovarian) | TGI (SK-MEL-5 melanoma) | TGI (SK-OV-3 ovarian) | TGI (M14 melanoma) | TGI (BT-549 breast) | TGI (786-0 renal) | TGI (NCI-H460 lung) | TGI (HCT-15 colon) | TGI (HCT-116 colon) | TGI (MOLT-4 leukemia) | TGI (OVCAR-3 ovarian) | TGI (SF-295 CNS) | TGI (CAKI-1 renal) | TGI (NCI/ADR-RES ovarian) | TGI (MDA-MB-435)

Reference: PubChem BioAssay (NCI)
